From PubChem BioAssay (NCI)
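Cultured in 96-well plates, cells were exposed to test compound for 48 hours across five concentrations. At the TGI there is no net growth.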

System: SW-620 colon
Test: NCI anticancer screen, dose series, 48 h

Question: For OC1c2ccccc2CCC1C(O)(C(F)(F)F)C(F)(F)F (configuration not stated), which TGI is on record?
Answer: The TGI was > 100 µM.

System: OVCAR-3 ovarian
Test: NCI anticancer screen, dose series, 48 h

Question: Which TGI does the source give for CCOCCOC(=O)C1CCC(=O)N1CN(C(C)=O)c1cc(OC)ccc1OC (configuration not stated) here?
Answer: Its TGI is > 100 µM.

Question: Which TGI does the source give for CC(C)(Cl)C(Br)CCC(C)(Br)C(Br)CBr (configuration not stated) here?
Answer: Its TGI is 29.9 µM.

Question: For O=CN(CCN1CCCC1)C1CCc2cc(Cl)c(Cl)cc2C1 (configuration not stated), which TGI is on record?
Answer: The TGI was 30.6 µM.

Question: For OC1c2ccccc2CCC1C(O)(C(F)(F)F)C(F)(F)F (configuration not stated), which TGI is on record?
Answer: Its TGI is > 100 µM.

System: SR leukemia
Test: NCI anticancer screen, dose series, 48 h

Question: How did the TGI turn out when CCOCCOC(=O)C1CCC(=O)N1CN(C(C)=O)c1cc(OC)ccc1OC (configuration not stated) was run?
Answer: Its TGI is > 100 µM.

Question: With CCOC(=O)C(/C=N\C(=S)Nc1c(CC)cccc1C(C)(C)C)=C(/O)c1ccccc1 as the molecule, how does the TGI read?
Answer: The TGI was > 100 µM.

Question: With O=CN(CCN1CCCC1)C1CCc2cc(Cl)c(Cl)cc2C1 (configuration not stated) as the molecule, how does the TGI read?
Answer: Its TGI is 60.7 µM.

Question: Which TGI does the source give for OC1c2ccccc2CCC1C(O)(C(F)(F)F)C(F)(F)F (configuration not stated) here?
Answer: Its TGI is > 100 µM.

System: M14 melanoma
Test: NCI anticancer screen, dose series, 48 h

Question: CCOCCOC(=O)C1CCC(=O)N1CN(C(C)=O)c1cc(OC)ccc1OC (configuration not stated) was tested. Which TGI did it give?
Answer: The TGI was > 100 µM.

Question: Which TGI does the source give for CC(C)(Cl)C(Br)CCC(C)(Br)C(Br)CBr (configuration not stated) here?
Answer: Its TGI is 33.7 µM.

Question: For CCOC(=O)C(/C=N\C(=S)Nc1c(CC)cccc1C(C)(C)C)=C(/O)c1ccccc1, which TGI is on record?
Answer: The TGI was > 100 µM.

Question: With O=CN(CCN1CCCC1)C1CCc2cc(Cl)c(Cl)cc2C1 (configuration not stated) as the molecule, how does the TGI read?
Answer: The TGI was 29.3 µM.

Question: How did the TGI turn out when OC1c2ccccc2CCC1C(O)(C(F)(F)F)C(F)(F)F (configuration not stated) was run?
Answer: The TGI was > 100 µM.

System: TK-10 renal
Test: NCI anticancer screen, dose series, 48 h

Question: Which TGI does the source give for CCOCCOC(=O)C1CCC(=O)N1CN(C(C)=O)c1cc(OC)ccc1OC (configuration not stated) here?
Answer: Its TGI is > 100 µM.

Question: With CC(C)(Cl)C(Br)CCC(C)(Br)C(Br)CBr (configuration not stated) as the molecule, how does the TGI read?
Answer: The TGI was 62.2 µM.

Question: Which TGI does the source give for O=CN(CCN1CCCC1)C1CCc2cc(Cl)c(Cl)cc2C1 (configuration not stated) here?
Answer: The TGI was 34.8 µM.

Question: With OC1c2ccccc2CCC1C(O)(C(F)(F)F)C(F)(F)F (configuration not stated) as the molecule, how does the TGI read?
Answer: The TGI was > 100 µM.

System: UO-31 renal
Test: NCI anticancer screen, dose series, 48 h

Question: For CCOCCOC(=O)C1CCC(=O)N1CN(C(C)=O)c1cc(OC)ccc1OC (configuration not stated), which TGI is on record?
Answer: The TGI was > 100 µM.

Question: Which TGI does the source give for CC(C)(Cl)C(Br)CCC(C)(Br)C(Br)CBr (configuration not stated) here?
Answer: Its TGI is 36.1 µM.

Question: Which TGI does the source give for CCOC(=O)C(/C=N\C(=S)Nc1c(CC)cccc1C(C)(C)C)=C(/O)c1ccccc1 here?
Answer: The TGI was > 100 µM.

Question: How did the TGI turn out when O=CN(CCN1CCCC1)C1CCc2cc(Cl)c(Cl)cc2C1 (configuration not stated) was run?
Answer: Its TGI is 27.1 µM.

Question: OC1c2ccccc2CCC1C(O)(C(F)(F)F)C(F)(F)F (configuration not stated) was tested. Which TGI did it give?
Answer: Its TGI is > 100 µM.

System: LOX IMVI melanoma
Test: NCI anticancer screen, dose series, 48 h

Question: For CCOCCOC(=O)C1CCC(=O)N1CN(C(C)=O)c1cc(OC)ccc1OC (configuration not stated), which TGI is on record?
Answer: Its TGI is > 100 µM.

Question: How did the TGI turn out when CCOC(=O)C(/C=N\C(=S)Nc1c(CC)cccc1C(C)(C)C)=C(/O)c1ccccc1 was run?
Answer: Its TGI is > 100 µM.

Question: With O=CN(CCN1CCCC1)C1CCc2cc(Cl)c(Cl)cc2C1 (configuration not stated) as the molecule, how does the TGI read?
Answer: Its TGI is 27.3 µM.

Question: OC1c2ccccc2CCC1C(O)(C(F)(F)F)C(F)(F)F (configuration not stated) was tested. Which TGI did it give?
Answer: Its TGI is > 100 µM.

System: BT-549 breast
Test: NCI anticancer screen, dose series, 48 h

Question: With CC(C)(Cl)C(Br)CCC(C)(Br)C(Br)CBr (configuration not stated) as the molecule, how does the TGI read?
Answer: Its TGI is 42.8 µM.

Question: With O=CN(CCN1CCCC1)C1CCc2cc(Cl)c(Cl)cc2C1 (configuration not stated) as the molecule, how does the TGI read?
Answer: The TGI was 27.7 µM.

System: SF-268 CNS
Test: NCI anticancer screen, dose series, 48 h

Question: CCOCCOC(=O)C1CCC(=O)N1CN(C(C)=O)c1cc(OC)ccc1OC (configuration not stated) was tested. Which TGI did it give?
Answer: The TGI was > 100 µM.

Question: For CC(C)(Cl)C(Br)CCC(C)(Br)C(Br)CBr (configuration not stated), which TGI is on record?
Answer: The TGI was 32.6 µM.

Question: How did the TGI turn out when CCOC(=O)C(/C=N\C(=S)Nc1c(CC)cccc1C(C)(C)C)=C(/O)c1ccccc1 was run?
Answer: Its TGI is > 100 µM.

Question: With O=CN(CCN1CCCC1)C1CCc2cc(Cl)c(Cl)cc2C1 (configuration not stated) as the molecule, how does the TGI read?
Answer: The TGI was > 100 µM.

Question: With OC1c2ccccc2CCC1C(O)(C(F)(F)F)C(F)(F)F (configuration not stated) as the molecule, how does the TGI read?
Answer: The TGI was > 100 µM.

System: PC-3 prostate
Test: NCI anticancer screen, dose series, 48 h

Question: With CCOCCOC(=O)C1CCC(=O)N1CN(C(C)=O)c1cc(OC)ccc1OC (configuration not stated) as the molecule, how does the TGI read?
Answer: Its TGI is > 100 µM.

Question: How did the TGI turn out when CC(C)(Cl)C(Br)CCC(C)(Br)C(Br)CBr (configuration not stated) was run?
Answer: Its TGI is 64.7 µM.

Question: CCOC(=O)C(/C=N\C(=S)Nc1c(CC)cccc1C(C)(C)C)=C(/O)c1ccccc1 was tested. Which TGI did it give?
Answer: Its TGI is > 100 µM.

Question: With O=CN(CCN1CCCC1)C1CCc2cc(Cl)c(Cl)cc2C1 (configuration not stated) as the molecule, how does the TGI read?
Answer: The TGI was 28.9 µM.

Question: How did the TGI turn out when OC1c2ccccc2CCC1C(O)(C(F)(F)F)C(F)(F)F (configuration not stated) was run?
Answer: Its TGI is > 100 µM.

System: CCRF-CEM leukemia
Test: NCI anticancer screen, dose series, 48 h

Question: How did the TGI turn out when CC(C)(Cl)C(Br)CCC(C)(Br)C(Br)CBr (configuration not stated) was run?
Answer: Its TGI is 28.7 µM.

Question: With CCOC(=O)C(/C=N\C(=S)Nc1c(CC)cccc1C(C)(C)C)=C(/O)c1ccccc1 as the molecule, how does the TGI read?
Answer: The TGI was > 100 µM.

Question: Which TGI does the source give for O=CN(CCN1CCCC1)C1CCc2cc(Cl)c(Cl)cc2C1 (configuration not stated) here?
Answer: Its TGI is 43.9 µM.

Question: Which TGI does the source give for OC1c2ccccc2CCC1C(O)(C(F)(F)F)C(F)(F)F (configuration not stated) here?
Answer: The TGI was > 100 µM.

System: SK-OV-3 ovarian
Test: NCI anticancer screen, dose series, 48 h

Question: How did the TGI turn out when CCOCCOC(=O)C1CCC(=O)N1CN(C(C)=O)c1cc(OC)ccc1OC (configuration not stated) was run?
Answer: Its TGI is > 100 µM.

Question: CC(C)(Cl)C(Br)CCC(C)(Br)C(Br)CBr (configuration not stated) was tested. Which TGI did it give?
Answer: Its TGI is > 100 µM.

Question: With CCOC(=O)C(/C=N\C(=S)Nc1c(CC)cccc1C(C)(C)C)=C(/O)c1ccccc1 as the molecule, how does the TGI read?
Answer: The TGI was > 100 µM.

Question: Which TGI does the source give for O=CN(CCN1CCCC1)C1CCc2cc(Cl)c(Cl)cc2C1 (configuration not stated) here?
Answer: The TGI was 29 µM.

Question: OC1c2ccccc2CCC1C(O)(C(F)(F)F)C(F)(F)F (configuration not stated) was tested. Which TGI did it give?
Answer: Its TGI is > 100 µM.

System: SN12C renal
Test: NCI anticancer screen, dose series, 48 h

Question: For CCOCCOC(=O)C1CCC(=O)N1CN(C(C)=O)c1cc(OC)ccc1OC (configuration not stated), which TGI is on record?
Answer: Its TGI is > 100 µM.

Question: Which TGI does the source give for CC(C)(Cl)C(Br)CCC(C)(Br)C(Br)CBr (configuration not stated) here?
Answer: The TGI was 35.8 µM.

Question: How did the TGI turn out when CCOC(=O)C(/C=N\C(=S)Nc1c(CC)cccc1C(C)(C)C)=C(/O)c1ccccc1 was run?
Answer: Its TGI is > 100 µM.

Question: How did the TGI turn out when O=CN(CCN1CCCC1)C1CCc2cc(Cl)c(Cl)cc2C1 (configuration not stated) was run?
Answer: Its TGI is > 100 µM.

Question: OC1c2ccccc2CCC1C(O)(C(F)(F)F)C(F)(F)F (configuration not stated) was tested. Which TGI did it give?
Answer: The TGI was > 100 µM.

System: SNB-19 CNS
Test: NCI anticancer screen, dose series, 48 h

Question: For CCOCCOC(=O)C1CCC(=O)N1CN(C(C)=O)c1cc(OC)ccc1OC (configuration not stated), which TGI is on record?
Answer: The TGI was > 100 µM.

Question: With CC(C)(Cl)C(Br)CCC(C)(Br)C(Br)CBr (configuration not stated) as the molecule, how does the TGI read?
Answer: Its TGI is 54.6 µM.

Question: Which TGI does the source give for O=CN(CCN1CCCC1)C1CCc2cc(Cl)c(Cl)cc2C1 (configuration not stated) here?
Answer: Its TGI is 75 µM.

Question: How did the TGI turn out when OC1c2ccccc2CCC1C(O)(C(F)(F)F)C(F)(F)F (configuration not stated) was run?
Answer: The TGI was > 100 µM.

System: UACC-62 melanoma
Test: NCI anticancer screen, dose series, 48 h

Question: With CCOCCOC(=O)C1CCC(=O)N1CN(C(C)=O)c1cc(OC)ccc1OC (configuration not stated) as the molecule, how does the TGI read?
Answer: Its TGI is > 100 µM.

Question: With CC(C)(Cl)C(Br)CCC(C)(Br)C(Br)CBr (configuration not stated) as the molecule, how does the TGI read?
Answer: The TGI was 48.3 µM.

Question: With CCOC(=O)C(/C=N\C(=S)Nc1c(CC)cccc1C(C)(C)C)=C(/O)c1ccccc1 as the molecule, how does the TGI read?
Answer: Its TGI is > 100 µM.

Question: Which TGI does the source give for OC1c2ccccc2CCC1C(O)(C(F)(F)F)C(F)(F)F (configuration not stated) here?
Answer: The TGI was > 100 µM.

System: KM12 colon
Test: NCI anticancer screen, dose series, 48 h

Question: With CCOCCOC(=O)C1CCC(=O)N1CN(C(C)=O)c1cc(OC)ccc1OC (configuration not stated) as the molecule, how does the TGI read?
Answer: The TGI was > 100 µM.

Question: With CC(C)(Cl)C(Br)CCC(C)(Br)C(Br)CBr (configuration not stated) as the molecule, how does the TGI read?
Answer: The TGI was 36 µM.

Question: CCOC(=O)C(/C=N\C(=S)Nc1c(CC)cccc1C(C)(C)C)=C(/O)c1ccccc1 was tested. Which TGI did it give?
Answer: The TGI was > 100 µM.

Question: How did the TGI turn out when O=CN(CCN1CCCC1)C1CCc2cc(Cl)c(Cl)cc2C1 (configuration not stated) was run?
Answer: Its TGI is 20.9 µM.

Question: For OC1c2ccccc2CCC1C(O)(C(F)(F)F)C(F)(F)F (configuration not stated), which TGI is on record?
Answer: Its TGI is > 100 µM.

System: RPMI-8226 leukemia
Test: NCI anticancer screen, dose series, 48 h

Question: How did the TGI turn out when CCOCCOC(=O)C1CCC(=O)N1CN(C(C)=O)c1cc(OC)ccc1OC (configuration not stated) was run?
Answer: The TGI was > 100 µM.
